Laboratory results reported in PMC12628652, “A Validated UPLC‐MS/MS Method for Monitoring Temozolomide and Perillyl Alcohol Metabolites in Biological Matrices: Insights From a Preclinical Pharmacokinetic Study” (Biomedical Chromatography, 2025).

Legend:
[1] = Stability of analytes in rat plasma and tissue matrices (freeze-thaw, bench-top, autosampler); type: physicochemical; settings: for Stability (ER %) Autosampler: 10°C for 24 h; for Stability (ER %) Bench-top: room temperature for 6 h; for Stability (ER %) Freeze/thaw: three freeze–thaw cycles over 24-h intervals
Protocol: QC samples were prepared by spiking blank rat plasma with PA, AIC, and TMZ at three concentration levels: 30, 80, and 200 ng/mL. Internal standards (IS1 and IS2) were added to each sample at a final concentration of 100 ng/mL. Whole blood was obtained from untreated anesthetized rats that were euthanized as part of the study protocol. Blood samples were collected into heparinized tubes and centrifuged at 3500 rpm for 10 min at 20°C to separate plasma. Organs including the brain, lungs, kidneys, spleen, and liver were promptly excised and homogenized using a Marconi mechanical tissue homogenizer (5 mm probe) in phosphate‐buffered saline (PBS, pH 7.4) at a 1:5 (w/v) tissue‐to‐buffer ratio.
For each matrix sample, 50 μL of homogenate or plasma was mixed with 50 μL of internal standard (IS) solution (100 ng/mL), followed by the addition of the respective working solution to reach the target analyte concentration. The volume was adjusted to 1 mL using an appropriate solvent mixture. Samples were centrifuged again at 3500 rpm for 10 min at 4°C. The resulting supernatants were filtered through 0.22 μm membrane filters prior to chromatographic analysis. All calibration standards and QC samples were prepared freshly on the day of analysis to minimize analyte degradation.
The stability of PA, AIC, and TMZ in rat plasma was assessed under the following conditions using low, medium, and high QC levels: (1) Freeze–thaw stability: Three freeze–thaw cycles over 24‐h intervals; (2) Bench‐top stability: Storage at room temperature for 6 h; (3) Autosampler stability: Storage at 10°C for 24 h. Analytes were considered stable if the relative error (RE%) remained within ±15% (Tiwari and Tiwari [2010]).

[2] = parameters: method as in Ostermann et al. [2004]; settings: ref Ostermann et al. [2004]; cited from earlier work
[3] = rat brain homogenate, 200 ng/mL
[4] = rat kidney homogenate, 30 ng/mL
[5] = rat kidney homogenate, 80 ng/mL
[6] = rat kidney homogenate, 200 ng/mL
[7] = rat liver homogenate, 200 ng/mL
[8] = rat spleen homogenate, 30 ng/mL
[9] = rat spleen homogenate, 80 ng/mL
[10] = rat spleen homogenate, 200 ng/mL

## Cn1nnc2c(C(N)=O)ncn2c1=O [TMZ, Temozolomide]
[1]; rat brain homogenate, 30 ng/mL
  Stability (ER %) Autosampler: 1.65%
  Stability (ER %) Bench-top: 1.48%
  Stability (ER %) Freeze/thaw: 9.76%
[1]; rat brain homogenate, 80 ng/mL
  Stability (ER %) Autosampler: 1.89%
  Stability (ER %) Bench-top: 7.73%
  Stability (ER %) Freeze/thaw: 0.84%
[1]; [3]
  Stability (ER %) Autosampler: 4.29%
  Stability (ER %) Bench-top: 2.32%
  Stability (ER %) Freeze/thaw: 4.42%
[1]; [4]
  Stability (ER %) Autosampler: 1.41%
  Stability (ER %) Bench-top: 1.99%
  Stability (ER %) Freeze/thaw: 3.69%
[1]; [5]
  Stability (ER %) Autosampler: 3.14%
  Stability (ER %) Bench-top: 8.22%
  Stability (ER %) Freeze/thaw: 9.44%
[1]; [6]
  Stability (ER %) Autosampler: 4.92%
  Stability (ER %) Bench-top: 3.77%
  Stability (ER %) Freeze/thaw: 4.52%
[1]; rat liver homogenate, 30 ng/mL
  Stability (ER %) Autosampler: 3.82%
  Stability (ER %) Bench-top: 1.49%
  Stability (ER %) Freeze/thaw: 5.67%
[1]; rat liver homogenate, 80 ng/mL
  Stability (ER %) Autosampler: 4.07%
  Stability (ER %) Bench-top: 6.41%
  Stability (ER %) Freeze/thaw: 8.17%
[1]; [7]
  Stability (ER %) Autosampler: 3.33%
  Stability (ER %) Bench-top: 1.57%
  Stability (ER %) Freeze/thaw: 1.54%
[1]; rat lung homogenate, 30 ng/mL
  Stability (ER %) Autosampler: 4.82%
  Stability (ER %) Bench-top: 7.99%
  Stability (ER %) Freeze/thaw: 6.24%
[1]; rat lung homogenate, 80 ng/mL
  Stability (ER %) Autosampler: 3.02%
  Stability (ER %) Bench-top: 9.32%
  Stability (ER %) Freeze/thaw: 7.19%
[1]; rat lung homogenate, 200 ng/mL
  Stability (ER %) Autosampler: 2.51%
  Stability (ER %) Bench-top: 5.54%
  Stability (ER %) Freeze/thaw: 1.34%
[1]; rat plasma, 30 ng/mL
  Stability (ER %) Autosampler: 12.84%
  Stability (ER %) Bench-top: 1.39%
  Stability (ER %) Freeze/thaw: 3.94%
[1]; rat plasma, 80 ng/mL
  Stability (ER %) Autosampler: 5.39%
  Stability (ER %) Bench-top: 3.94%
  Stability (ER %) Freeze/thaw: 4.29%
[1]; rat plasma, 200 ng/mL
  Stability (ER %) Autosampler: 13.24%
  Stability (ER %) Bench-top: 1.94%
  Stability (ER %) Freeze/thaw: 9.83%
[1]; [8]
  Stability (ER %) Autosampler: 2.64%
  Stability (ER %) Bench-top: 6.41%
  Stability (ER %) Freeze/thaw: 5.86%
[1]; [9]
  Stability (ER %) Autosampler: 2.61%
  Stability (ER %) Bench-top: 1.35%
  Stability (ER %) Freeze/thaw: 1.35%
[1]; [10]
  Stability (ER %) Autosampler: 2.22%
  Stability (ER %) Bench-top: 1.05%
  Stability (ER %) Freeze/thaw: 3.86%
[2]
  share of the plasma concentration reaching brain tissues: ~ 20%

## C=C(C)[C@@H]1CC=C(C(=O)O)CC1 [PA, perillic acid]
[1]; rat brain homogenate, 30 ng/mL
  Stability (ER %) Autosampler: 2.95%
  Stability (ER %) Bench-top: 1.28%
  Stability (ER %) Freeze/thaw: 1.93%
[1]; rat brain homogenate, 80 ng/mL
  Stability (ER %) Autosampler: 2.37%
  Stability (ER %) Bench-top: 10.03%
  Stability (ER %) Freeze/thaw: 7.85%
[1]; [3]
  Stability (ER %) Autosampler: 4.49%
  Stability (ER %) Bench-top: 5.74%
  Stability (ER %) Freeze/thaw: 2.46%
[1]; [4]
  Stability (ER %) Autosampler: 4.24%
  Stability (ER %) Bench-top: 9.61%
  Stability (ER %) Freeze/thaw: 8.61%
[1]; [5]
  Stability (ER %) Autosampler: 3.42%
  Stability (ER %) Bench-top: 7.75%
  Stability (ER %) Freeze/thaw: 7.99%
[1]; [6]
  Stability (ER %) Autosampler: 3.31%
  Stability (ER %) Bench-top: 1.36%
  Stability (ER %) Freeze/thaw: 1.82%
[1]; rat liver homogenate, 30 ng/mL
  Stability (ER %) Autosampler: 5.04%
  Stability (ER %) Bench-top: 1.59%
  Stability (ER %) Freeze/thaw: 1.52%
[1]; rat liver homogenate, 80 ng/mL
  Stability (ER %) Autosampler: 2.92%
  Stability (ER %) Bench-top: 2.49%
  Stability (ER %) Freeze/thaw: 3.24%
[1]; [7]
  Stability (ER %) Autosampler: 4.45%
  Stability (ER %) Bench-top: 0.42%
  Stability (ER %) Freeze/thaw: 2.39%
[1]; rat lung homogenate, 30 ng/mL
  Stability (ER %) Autosampler: 4.01%
  Stability (ER %) Bench-top: 1.39%
  Stability (ER %) Freeze/thaw: 2.68%
[1]; rat lung homogenate, 80 ng/mL
  Stability (ER %) Autosampler: 4.14%
  Stability (ER %) Bench-top: 2.94%
  Stability (ER %) Freeze/thaw: 4.23%
[1]; rat lung homogenate, 200 ng/mL
  Stability (ER %) Autosampler: 3.04%
  Stability (ER %) Bench-top: 8.02%
  Stability (ER %) Freeze/thaw: 6.65%
[1]; rat plasma, 30 ng/mL
  Stability (ER %) Autosampler: 10.61%
  Stability (ER %) Bench-top: 5.32%
  Stability (ER %) Freeze/thaw: 1.26%
[1]; rat plasma, 80 ng/mL
  Stability (ER %) Autosampler: 14.01%
  Stability (ER %) Bench-top: 11.90%
  Stability (ER %) Freeze/thaw: 8.67%
[1]; rat plasma, 200 ng/mL
  Stability (ER %) Autosampler: 3.21%
  Stability (ER %) Bench-top: 13.82%
  Stability (ER %) Freeze/thaw: 4.45%
[1]; [8]
  Stability (ER %) Autosampler: 3.25%
  Stability (ER %) Bench-top: 2.55%
  Stability (ER %) Freeze/thaw: 2.72%
[1]; [9]
  Stability (ER %) Autosampler: 2.24%
  Stability (ER %) Bench-top: 6.84%
  Stability (ER %) Freeze/thaw: 5.52%
[1]; [10]
  Stability (ER %) Autosampler: 3.41%
  Stability (ER %) Bench-top: 9.57%
  Stability (ER %) Freeze/thaw: 8.51%

## NC(=O)c1[nH]cnc1N [AIC, 5‐aminoimidazole‐4‐carboxamide]
[1]; rat brain homogenate, 30 ng/mL
  Stability (ER %) Autosampler: 2.04%
  Stability (ER %) Bench-top: 7.13%
  Stability (ER %) Freeze/thaw: 8.55%
[1]; rat brain homogenate, 80 ng/mL
  Stability (ER %) Autosampler: 4.29%
  Stability (ER %) Bench-top: 8.22%
  Stability (ER %) Freeze/thaw: 1.79%
[1]; [3]
  Stability (ER %) Autosampler: 4.57%
  Stability (ER %) Bench-top: 9.26%
  Stability (ER %) Freeze/thaw: 6.76%
[1]; [4]
  Stability (ER %) Autosampler: 4.28%
  Stability (ER %) Bench-top: 2.11%
  Stability (ER %) Freeze/thaw: 1.29%
[1]; [5]
  Stability (ER %) Autosampler: 5.42%
  Stability (ER %) Bench-top: 8.94%
  Stability (ER %) Freeze/thaw: 8.45%
[1]; [6]
  Stability (ER %) Autosampler: 5.94%
  Stability (ER %) Bench-top: 8.76%
  Stability (ER %) Freeze/thaw: 6.46%
[1]; rat liver homogenate, 30 ng/mL
  Stability (ER %) Autosampler: 4.35%
  Stability (ER %) Bench-top: 9.13%
  Stability (ER %) Freeze/thaw: 1.67%
[1]; rat liver homogenate, 80 ng/mL
  Stability (ER %) Autosampler: 1.74%
  Stability (ER %) Bench-top: 3.28%
  Stability (ER %) Freeze/thaw: 9.53%
[1]; [7]
  Stability (ER %) Autosampler: 2.34%
  Stability (ER %) Bench-top: 8.71%
  Stability (ER %) Freeze/thaw: 7.67%
[1]; rat lung homogenate, 30 ng/mL
  Stability (ER %) Autosampler: 2.22%
  Stability (ER %) Bench-top: 7.93%
  Stability (ER %) Freeze/thaw: 5.74%
[1]; rat lung homogenate, 80 ng/mL
  Stability (ER %) Autosampler: 2.84%
  Stability (ER %) Bench-top: 8.37%
  Stability (ER %) Freeze/thaw: 1.04%
[1]; rat lung homogenate, 200 ng/mL
  Stability (ER %) Autosampler: 3.33%
  Stability (ER %) Bench-top: 8.49%
  Stability (ER %) Freeze/thaw: 6.67%
[1]; rat plasma, 30 ng/mL
  Stability (ER %) Autosampler: 12.36%
  Stability (ER %) Bench-top: 6.77%
  Stability (ER %) Freeze/thaw: 10.24%
[1]; rat plasma, 80 ng/mL
  Stability (ER %) Autosampler: 13.46%
  Stability (ER %) Bench-top: 10.93%
  Stability (ER %) Freeze/thaw: 5.34%
[1]; rat plasma, 200 ng/mL
  Stability (ER %) Autosampler: 3.48%
  Stability (ER %) Bench-top: 9.03%
  Stability (ER %) Freeze/thaw: 1.04%
[1]; [8]
  Stability (ER %) Autosampler: 4.01%
  Stability (ER %) Bench-top: 1.42%
  Stability (ER %) Freeze/thaw: 8.36%
[1]; [9]
  Stability (ER %) Autosampler: 4.98%
  Stability (ER %) Bench-top: 3.74%
  Stability (ER %) Freeze/thaw: 4.43%
[1]; [10]
  Stability (ER %) Autosampler: 3.13%
  Stability (ER %) Bench-top: 1.52%
  Stability (ER %) Freeze/thaw: 1.32%
